The record followed here is patent US20160355475A1, “NOVEL INDOLE DERIVATIVE COMPOUND AND PHARMACEUTICAL COMPOSITION COMPRISING THE SAME” (CHONG KUN DANG PHARMACEUTICAL CORP., priority 2014, published 2016).

One assay deals with T1, HDAC6 human recombinant (Homo sapiens, UniProt Q9UBN7).
T1 construct: purchased Calbiochem 382180
T1 sequence (Q9UBN7 1-1215): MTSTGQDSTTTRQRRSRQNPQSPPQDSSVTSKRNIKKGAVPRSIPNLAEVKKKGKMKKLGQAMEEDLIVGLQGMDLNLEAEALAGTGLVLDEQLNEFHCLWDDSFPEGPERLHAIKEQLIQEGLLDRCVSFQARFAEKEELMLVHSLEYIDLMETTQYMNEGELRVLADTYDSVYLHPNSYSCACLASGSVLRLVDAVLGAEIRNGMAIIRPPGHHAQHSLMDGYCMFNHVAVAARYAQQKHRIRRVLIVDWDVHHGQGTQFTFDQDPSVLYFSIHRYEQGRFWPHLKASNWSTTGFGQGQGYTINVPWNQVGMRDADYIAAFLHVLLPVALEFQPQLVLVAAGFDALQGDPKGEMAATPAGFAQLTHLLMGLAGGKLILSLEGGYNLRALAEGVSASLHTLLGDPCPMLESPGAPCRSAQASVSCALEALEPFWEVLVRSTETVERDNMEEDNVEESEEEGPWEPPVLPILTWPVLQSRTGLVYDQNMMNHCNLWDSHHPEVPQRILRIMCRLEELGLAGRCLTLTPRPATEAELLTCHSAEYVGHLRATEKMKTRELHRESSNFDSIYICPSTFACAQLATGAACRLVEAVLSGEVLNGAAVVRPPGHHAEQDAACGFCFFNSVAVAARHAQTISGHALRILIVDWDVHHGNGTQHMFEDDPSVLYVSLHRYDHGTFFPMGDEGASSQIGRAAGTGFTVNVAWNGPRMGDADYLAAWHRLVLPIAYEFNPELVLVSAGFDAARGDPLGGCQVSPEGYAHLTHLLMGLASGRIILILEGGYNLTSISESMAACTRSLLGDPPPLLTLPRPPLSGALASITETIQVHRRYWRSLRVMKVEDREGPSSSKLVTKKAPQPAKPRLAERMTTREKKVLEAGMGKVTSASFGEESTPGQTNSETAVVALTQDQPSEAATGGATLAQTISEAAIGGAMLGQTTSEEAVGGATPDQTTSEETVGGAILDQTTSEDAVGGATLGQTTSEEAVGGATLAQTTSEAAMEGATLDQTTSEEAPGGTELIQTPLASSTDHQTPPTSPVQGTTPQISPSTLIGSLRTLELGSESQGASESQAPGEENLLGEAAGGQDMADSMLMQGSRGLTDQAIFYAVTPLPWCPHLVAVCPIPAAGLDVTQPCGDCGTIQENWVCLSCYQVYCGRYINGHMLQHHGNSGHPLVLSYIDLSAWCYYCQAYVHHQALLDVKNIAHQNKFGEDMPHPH
Nature of the assay: HDAC6 enzyme activity inhibition (fluorimetric, in vitro). The settings on record: 37° C., 60 minutes; tested at 0.1, 1, 10, 100 and 1000 nM. The format is biochemical. As to the method: (§1) 1. Experiment on Activities in HDAC Enzymes (HDAC1 and HDAC6)
(§2) Assays were performed using a HDAC1 fluorimetric drug discovery assay kit (Enzolifesciences: BML-AK511) and a HDAC6 human recombinant (Calbiochem: 382180). The assay mixture of the kit was treated with each of the compounds of the Examples at concentrations 100, 1000 and 10000 nM for HDAC1 assay and 0.1, 1, 10, 100 and 1000 nM for HDAC6 assay. The treated assay mixture was allowed to react at 37° C. for 60 minutes, and then was treated with a developer and allowed to stand at 37° C. for 30 minutes, followed by quantification of the fluorescence. In Table 17, lower HDAC6 values (μM) indicate higher HDAC6 inhibitory activities of the compounds. Also, because selective HDAC6 inhibitors should not inhibit HDAC1 (μM), higher HDAC1 values indicate higher HDAC6 selectivity of the compounds.

Another assay deals with T2, HDAC1 (Homo sapiens, UniProt Q13547).
T2 construct: purchased Enzolifesciences BML-AK511
The assay can be described thus: HDAC1 enzyme activity inhibition (HDAC1 fluorimetric drug discovery assay kit). The format is biochemical. The settings on record: 37° C., 60 minutes; tested at 100, 1000 and 10000 nM. As to the method: as §1, §2

T2 sequence (Q13547 whole entry): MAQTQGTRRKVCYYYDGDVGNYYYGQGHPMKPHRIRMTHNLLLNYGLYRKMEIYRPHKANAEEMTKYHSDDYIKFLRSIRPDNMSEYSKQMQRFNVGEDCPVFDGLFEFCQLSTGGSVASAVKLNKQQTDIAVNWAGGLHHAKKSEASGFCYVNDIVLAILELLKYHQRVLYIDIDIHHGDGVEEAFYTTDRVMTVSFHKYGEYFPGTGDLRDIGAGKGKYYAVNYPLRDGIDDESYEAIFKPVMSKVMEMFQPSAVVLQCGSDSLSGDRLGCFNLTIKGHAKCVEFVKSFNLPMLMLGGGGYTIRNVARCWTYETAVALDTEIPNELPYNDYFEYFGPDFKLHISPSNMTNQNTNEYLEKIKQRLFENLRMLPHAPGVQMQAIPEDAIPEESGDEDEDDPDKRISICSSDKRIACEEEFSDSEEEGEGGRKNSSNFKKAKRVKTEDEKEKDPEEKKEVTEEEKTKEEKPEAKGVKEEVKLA

In the case of `Cc1c(Cc2ccc(C(=O)NO)cc2)c2ccccc2n1CCN1CCOCC1` [Compound 153, N-hydroxy-4-((2-methyl-1-(2-morpholinoethyl)-1H-indol-3-yl)methyl)benzamide], the IC50 amounted to 140 nM on HDAC6 human recombinant and 4380 nM at HDAC1.

As to `Cc1c(Cc2ccc(C(=O)NO)cc2)c2ccccc2n1CCN1CCN(C)CC1` [Compound 154, N-hydroxy-4-((2-methyl-1-(2-(4-methylpiperazin-1-yl)ethyl)-1H-indol-3-yl)methyl)benzamide], the half-maximal inhibitory concentration (IC50) at HDAC6 human recombinant turned out to be 8 nM; against HDAC1, 2220 nM.

`O=C(NO)c1ccc(Cc2c(CN3CCOCC3)[nH]c3ccccc23)cc1` [Compound 155, N-hydroxy-4-((2-(morpholinomethyl)-1H-indol-3-yl)methyl)benzamide]: the values for the IC50 on HDAC6 human recombinant and on HDAC1 were 24 nM and 3860 nM, respectively.

With `Cc1c(Cc2ccc(C(=O)NO)cc2)c2ccccc2n1CCN1CCN(C(C)C)CC1` [Compound 196, N-hydroxy-4-((1-(2-(4-isopropylpiperazin-1-yl)ethyl)-2-methyl-1H-indol-3-yl)methyl)benzamide], the concentration for half-maximal inhibition (IC50) at HDAC6 human recombinant worked out at 6 nM; against HDAC1 it was 1610 nM.

For the compound `Cc1c(Cc2ccc(C(=O)NO)cc2)c2ccccc2n1CCN1CCN(CCO)CC1` [Compound 197, N-hydroxy-4-((1-(2-(4-(2-hydroxyethyl)piperazin-1-yl)ethyl)-2-methyl-1H-indol-3-yl)methyl)benzamide], the half-inhibitory concentration (IC50) at HDAC6 human recombinant was 8 nM; against HDAC1, 1810 nM.

In the case of `COCCN1CCN(CCn2c(C)c(Cc3ccc(C(=O)NO)cc3)c3ccccc32)CC1` [Compound 198, N-hydroxy-4-((1-(2-(4-(2-methoxyethyl)piperazin-1-yl)ethyl)-2-methyl-1H-indol-3-yl)methyl)benzamide], the IC50 at HDAC6 human recombinant was found to be 5 nM; against HDAC1, 1890 nM.

As to `Cc1c(Cc2ccc(C(=O)NO)cc2)c2ccccc2n1CCN1CCC[C@H]1CO` [Compound 199, (S)—N-hydroxy-4-((1-(2-(2-(hydroxymethyl)pyrrolidin-1-yl)ethyl)-2-methyl-1H-indol-3-yl)methyl)benzamide], the half-inhibitory concentration (IC50) at HDAC6 human recombinant is 4 nM; against HDAC1, 1260 nM.

With `COC[C@@H]1CCCN1CCn1c(C)c(Cc2ccc(C(=O)NO)cc2)c2ccccc21` [Compound 200, (S)—N-hydroxy-4-((1-(2-(2-(methoxymethyl)pyrrolidin-1-yl)ethyl)-2-methyl-1H-indol-3-yl)methyl)benzamide], the half-inhibitory concentration (IC50) at HDAC6 human recombinant is 8 nM; at HDAC1, 2610 nM.

As to `Cc1nccn1CCn1c(C)c(Cc2ccc(C(=O)NO)cc2)c2ccccc21` [Compound 201, N-hydroxy-4-((2-methyl-1-(2-(2-methyl-1H-imadazol-1-yl)ethyl)-1H-indol-3-yl)methyl)benzamide], the figures for the 50% inhibitory concentration (IC50) on HDAC6 human recombinant and against HDAC1 were 9 nM and 2470 nM, respectively.

For the compound `Cc1c(Cc2ccc(C(=O)NO)cc2)c2ccccc2n1CCN1CCC(F)CC1` [Compound 553, 4-((1-(2-(4-Fluoropiperidin-1-yl)ethyl)-2-methyl-1H-indol-3-yl)methyl)-N-hydroxybenzamide], the half-inhibitory concentration (IC50) is 39 nM on HDAC6 human recombinant and 8100 nM against HDAC1.

Consider `CCCCN1CCC(Cn2c(C)c(Cc3ccc(C(=O)NO)cc3)c3ccccc32)CC1` [Compound 558, 4-((1-((1-Butylpiperidin-4-yl)methyl)-2-methyl-1H-indol-3-yl)methyl)-N-hydroxybenzamide], for which the 50% inhibitory concentration (IC50) on HDAC6 human recombinant was found to be 80 nM; on HDAC1, 6110 nM.

Regarding `Cc1c(Cc2ccc(C(=O)NO)cc2)c2ccccc2n1CCN1CCN(CC(C)(C)F)CC1` [Compound 564, 4-((1-(2-(4-(2-Fluoro-2-methylpropyl)piperazin-1-yl)ethyl)-2-methyl-1H-indol-3-yl)methyl)-N-hydroxybenzamide], the IC50 came to 25 nM on HDAC6 human recombinant and 370 nM against HDAC1.

In the case of `CCC(F)(CC)CN1CCC(CCn2c(C)c(Cc3ccc(C(=O)NO)cc3)c3ccccc32)CC1` [Compound 581, 4-((1-(2-(1-(2-Ethyl-2-fluorobutyl)piperidin-4-yl)ethyl)-2-methyl-1H-indol-3-yl)methyl)-N-hydroxybenzamide], the 50% inhibitory concentration (IC50) is 870 nM on HDAC6 human recombinant and over 10000 nM against HDAC1.

In the case of `Cc1c(Cc2ccc(C(=O)NO)cc2)c2cc(F)ccc2n1CC1CCN(CC(C)(C)O)CC1` [Compound 582, 4-((5-Fluoro-1-((1-(2-hydroxy-2-methylpropyl)piperidin-4-yl)methyl)-2-methyl-1H-indol-3-yl)methyl)-N-hydroxybenzamide], the IC50 is 27 nM at HDAC6 human recombinant and 2460 nM against HDAC1.

Take `Cc1c(Cc2ccc(C(=O)NO)cc2)c2ccccc2n1CCN1CCCCC1` [Compound 585]: the IC50 at HDAC6 human recombinant turned out to be 84 nM; at HDAC1 it was 7750 nM.

`Cc1c(Cc2ccc(C(=O)NO)cc2)c2ccccc2n1CCN1CCC(CO)C1` (centres unmarked) [Compound 586, N-hydroxy-4-((1-(2-(3-(hydroxymethyl)pyrrolidin-1-yl)ethyl)-2-methyl-1H-indol-3-yl)methyl)benzamide]: the IC50 at HDAC6 human recombinant stood at 16 nM; at HDAC1 it was 2810 nM.

Consider `Cc1c(Cc2ccc(C(=O)NO)cc2)c2cc(F)ccc2n1CCN1CC[C@H](O)C1` [Compound 587, (S)-4-((5-fluoro-1-(2-(3-hydroxypyrrolidin-1-yl)ethyl)-2-methyl-1H-indol-3-yl)methyl)-N-hydroxybenzamide], for which the half-maximal inhibitory concentration (IC50) at HDAC6 human recombinant turned out to be 30 nM; against HDAC1, 2810 nM.

Consider `Cc1c(Cc2ccc(C(=O)NO)cc2)c2cc(F)ccc2n1CC1CCN(CC(C)(C)F)CC1` [Compound 588, 4-((5-Fluoro-1-((1-(2-fluoro-2-methylpropyl)piperidin-4-yl)methyl)-2-methyl-1H-indol-3-yl)methyl)-N-hydroxybenzamide], for which the IC50 at HDAC6 human recombinant stood at 378 nM; on HDAC1, 6730 nM.

As for `CC(C)(F)CN1CCC(Cn2c(C3=CCOCC3)c(Cc3ccc(C(=O)NO)cc3)c3ccccc32)CC1` [Compound 627, 4-((2-(3,6-Dihydro-2H-pyran-4-yl)-1-((1-(2-fluoro-2-methylpropyl)piperidin-4-yl)methyl)-1H-indol-3-yl)methyl)-N-hydroxybenzamide], the half-inhibitory concentration (IC50) on HDAC6 human recombinant stood at 352 nM.

Turning to `Cc1c(Cc2ccc(C(=O)NO)cc2)c2ccccc2n1CC1CCN(CC2(F)CCN(C(=O)NC(C)C)CC2)CC1` [Compound 695, 4-Fluoro-4-((4-((3-(4-(hydroxycarbamoyl)benzyl)-2-methyl-1H-indol-1-yl)methyl)piperidin-1-yl)methyl)-N-isopropylpiperidine-1-carboxamide], on HDAC6 human recombinant, the IC50 is 24 nM.

As to `CC(C)(F)CN1CCC(Cn2cc(Cc3ccc(C(=O)NO)cc3)c3c(F)cccc32)CC1` [Compound 707, 4-((4-Fluoro-1-((1-(2-fluoro-2-methylpropyl)piperidin-4-yl)methyl)-1H-indol-3-yl)methyl)-N-hydroxybenzamide], the IC50 at HDAC6 human recombinant came to 171 nM.

As to `CC(C)(F)CN1CCC(Cn2cc(Cc3ccc(C(=O)NO)cc3)c3ccc(F)cc32)CC1` [Compound 708, 4-((6-Fluoro-1-((1-(2-fluoro-2-methylpropyl)piperidin-4-yl)methyl)-1H-indol-3-yl)methyl)-N-hydroxybenzamide], the 50% inhibitory concentration (IC50) on HDAC6 human recombinant was 432 nM.

Take `Cc1c(Cc2ccc(C(=O)NO)cc2)c2ccccc2n1CC1CN(CC(C)(C)F)C1` [Compound 750, 4-((1-((1-(2-Fluoro-2-methylpropyl)azetidin-3-yl)methyl)-2-methyl-1H-indol-3-yl)methyl)-N-hydroxybenzamide]: at HDAC6 human recombinant, the 50% inhibitory concentration (IC50) stood at 114 nM.

For orientation: IC50 means the midpoint of a concentration-inhibition curve.
